Data as given in patent US10647675B2 (priority 2015, dated 2020).
Values after ≈ are worked out from the molar mass of the structure shown.

Tests used:
[1] = Nail permeability test through human nail using Franz cell; format: in vitro ADME; conditions: 5% in propylene glycol:ethanol (1:4), 32° C.
Description: Permeability through human nail was measured by the method shown below using Franz cell. • Test Preparation: A test compound was dissolved in a propylene glycol:ethanol (1:4) mixed solution at a concentration of 5% to give a test preparation. As control compounds terbinafine and amorolfine were used. • (1) Human nail (thickness 300-500 μm) was fixed using a nail adapter for Franz cell, and mounted on Franz cell. • (2) The receptor chamber of the Franz cell was filled with phosphate buffer, and placed in a thermostatic chamber at 32° C. • (3) A test preparation was applied to the aforementioned human nail at 61 μL/cm^2, after which a receptor solution was collected over days, and the concentration of the test compound in the receptor was measured by a liquid chromatography mass spectrometry method (LC/MS/MS). The cumulative amount of drug permeation (μg/cm^2) was calculated from the measured drug concentration in the receptor. A cumulative amount of drug permeation relative to the time after start of the test was plotted and the slope at final 4 time points was taken as Flux (μg/cm^2/day). The abbreviations in the Table mean the following compounds • TBF: terbinafine • AMF: amorolfine

[2] = system: Trichophyton rubrum KD-1130; assay: Antifungal activity evaluation test: minimum inhibitory concentration (MIC), broth dilution by reference to CLSI M38-A2; format: cell-based; conditions: KD1130, read-out: MIC (T. rubrum)
Outline: (§1)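 MIC read visually as lowest concentration inhibiting growth by at least 80% relative to control after 4 days at 35° C. Trichophyton strains inoculated at 2×10^3 cells/mL final in MOPS-buffered RPMI 1640 (pH 7.0); compounds as 2-fold DMSO series, CLSI M38-A2 basis.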

[3] = system: Trichophyton mentagrophytes SM-110; assay: as above; format: cell-based; conditions: SM110, read-out: MIC (T. menta.)
Outline: as §1

| SMILES | nail permeability (Flux) [1] | MIC [2] [µg/mL] | MIC [3] [µg/mL] |
| --- | --- | --- | --- |
| CCc1ccc(Oc2ncccc2-c2cncc(Br)c2OC)cc1 [I-285, 5′-bromo-2-(4-ethylphenoxy)-4′-methoxy-3,3′-bipyridine] | – | ≤ 0.1 | ≤ 0.1 |
| COc1ccncc1-c1cccnc1Oc1ccc(SC)cc1 [I-241, 4′-methoxy-2-[4-(methylthio)phenoxy]-3,3′-bipyridine] | – | ≤ 0.1 | ≤ 0.1 |
| CC(=O)CC(=O)c1ccc(Oc2ncccc2-c2cnccc2C)cc1 [I-424] | – | ≤ 0.1 | 0.2 to 0.78 (≈ 0.577 to 2.25 µM) |
| CC(F)(F)c1ccc(Oc2ncccc2-c2cccc3ccnn23)cn1 [I-115, 7-(2-{[6-(1,1-difluoroethyl)pyridin-3-yl]oxy}pyridin-3-yl)pyrazolo[1,5-a]pyridine] | – | ≤ 0.1 | ≤ 0.1 |

Second part, the molecule after the results:

| nail permeability (Flux) [1] | MIC [2] [µg/mL] | MIC [3] [µg/mL] | SMILES |
| --- | --- | --- | --- |
| D (D: <0.001) | ≤ 0.1 | ≤ 0.1 | CCC(C)(C)c1ccc(CC(C)CN2C[C@@H](C)O[C@@H](C)C2)cc1 (some centres unmarked) [AMF, amorolfine, reference compound] |
| D (D: <0.001) | ≤ 0.1 | ≤ 0.1 | CN(C/C=C/C#CC(C)(C)C)Cc1cccc2ccccc12 [TBF, terbinafine, reference compound] |
| – | 0.2 to 0.78 (≈ 0.637 to 2.49 µM) | 0.2 to 0.78 (≈ 0.637 to 2.49 µM) | COc1ccccc1-c1cccnc1Oc1cnc(Cl)nc1 [I-338, 2-chloro-5-{[3-(2-methoxyphenyl)pyridin-2-yl]oxy}pyrimidine] |
| – | ≤ 0.1 | ≤ 0.1 | COc1ncccc1-c1cccnc1Oc1ccc(C(C)(F)F)cc1 [I-298] |
| – | 1.56 to 6.25 (≈ 4.71 to 18.9 µM) | 1.56 to 6.25 (≈ 4.71 to 18.9 µM) | Cc1ncccc1-c1cccnc1Oc1ccc(C(F)(F)F)nc1 [I-24, 2-methyl-2′-{[6-(trifluoromethyl)pyridin-3-yl]oxy}-3,3′-bipyridine] |
